This note sets out measurements from ChEMBL document CHEMBL4715887, “Synthesis of novel isoflavone/benzo-δ-sultam hybrids as potential anti-inflammatory drugs” (Bioorg Med Chem Lett, 2021).

Series [1] has as its system BV-2. As to the kind of experiment: Cytotoxicity against mouse BV2 cells assessed as reduction in cell viability at 20 uM after 24 hrs by XTT assay. Particulars: bv-2, 24 h. The class given is cell-based. (Tetrazolium assays rely on reduction of a dye to a coloured formazan, in cell work by metabolically active cells.)
In series [2] the test system is BV-2. Put plainly: Antiinflammatory activity in mouse BV2 cells assessed as reduction in LPS-induced NO-production at 20 uM after 24 hrs by Griess reagent based assay relative to control. The class given is functional. In general terms: Griess reagent forms a coloured azo dye with nitrite.
Series [3] concerns BV-2. As to the kind of experiment: Antiinflammatory activity in mouse BV2 cells assessed as LPS-induced NO-production at 20 uM after 24 hrs by Griess reagent based assay relative to control. The class given is functional.
Series [4] has as its system BV-2. As to the kind of experiment: Antiinflammatory activity in mouse BV2 cells assessed as LPS-induced TNFalpha-production at 20 uM after 24 hrs by Griess reagent based assay relative to control. The class given is functional.
A short description of series [5]: Cytotoxicity against mouse BV2 cells assessed as cell viability at 20 uM after 24 hrs by XTT assay relative to control. Particulars: read-out: Activity. The class given is cell-based, BV-2.

The source made the active and inactive calls. The calls are words filed in the database; no cut-off is given here.

For orientation: inhibition means how much of the control response was suppressed.

With `O=S(=O)(Nc1ccccc1)c1ccccc1I`, the Activity result with BV-2 [1] was “Non-Toxic”.
Turning to `COc1ccc2c(=O)c(C3=Cc4ccccc4S(=O)(=O)N3)coc2c1`, in the series with BV-2 [2], the inhibition result was “Active”. The values for the Activity entry in the series with BV-2 [1] and in the series with BV-2 [3] were “Toxic” and 24%, respectively.
In the case of `COc1ccc(-c2coc3cc(O)cc(O)c3c2=O)cc1` [BIOCHANIN], the Activity in the series on BV-2 [4] is 33%; in the series with BV-2 [1], “Non-Toxic”. Further, in the series with BV-2 [2], the inhibition at 20 µM was 41%. In addition, the viability at 24 h, 20 µM in series [5] was 76%.
For the molecule `COc1ccc2c(=O)c(I)coc2c1`, the figures for the Activity with BV-2 [4], with BV-2 [1] and in the series on BV-2 [3] were 26%, “Non-Toxic” and 21%, respectively.
For the molecule `COc1ccc(CNS(=O)(=O)c2ccccc2C#Cc2coc3cc(OC)ccc3c2=O)cc1`, the inhibition entry in the series on BV-2 [2] was “Active”.
Regarding `COc1ccc2c(=O)c(-c3ccc(N)cc3)coc2c1`, the result with BV-2 [4] was Active. In addition, the Activity result is given as “Non-Toxic” in the series with BV-2 [1] and 42% with BV-2 [3].
With `CNS(=O)(=O)c1ccccc1Br`, the Activity entry with BV-2 [1] is listed as “Non-Toxic”.
Consider `COc1ccc2c(=O)c(-c3ccc(NS(=O)(=O)c4ccccc4C#Cc4ccccc4)cc3)coc2c1`, for which the inhibition entry with BV-2 [2] was “Active”. The Activity result in the series with BV-2 [1] is on record as “Non-Toxic”.
As for `O=c1c(-c2ccc(O)cc2)coc2cc(O)ccc12` [DAIDZEIN], the inhibition at 20 µM in the series on BV-2 [2] amounted to 35%. Moreover, the viability at 24 h, 20 µM in series [5] was more than 80%. Moreover, the Activity entry with BV-2 [1] is “Non-Toxic”.
With `CNS(=O)(=O)c1ccccc1I`, the Activity result in the series on BV-2 [1] is “Non-Toxic”.
Turning to `COc1ccc2c(=O)c(C3=Cc4ccccc4S(=O)(=O)N3C)coc2c1`, the inhibition entry in the series with BV-2 [2] is “Active”. Moreover, the Activity result in the series with BV-2 [1] is on record as “Non-Toxic”.
Turning to `COc1ccc2c(=O)c(-c3ccc(NS(=O)(=O)c4ccccc4Br)cc3)coc2c1`, in the series with BV-2 [2], the inhibition entry was “Active”. Besides, the Activity result in the series with BV-2 [1] is listed as “Non-Toxic”; in the series with BV-2 [3], 26%.
In the case of `COc1ccc(CNS(=O)(=O)c2ccccc2I)cc1`, the Activity entry in the series on BV-2 [1] was “Non-Toxic”.
For `O=S(=O)(Nc1ccccc1)c1ccccc1Br`, in the series with BV-2 [1], the Activity entry is “Non-Toxic”.
For the molecule `COc1ccc2c(=O)c(C3=Cc4ccccc4S(=O)(=O)N3c3ccccc3)coc2c1`, in the series with BV-2 [2], the inhibition result is “Active”. Further, in the series on BV-2 [1], the Activity entry is recorded as “Non-Toxic”.
Regarding `COc1ccc(CN2C(c3coc4cc(OC)ccc4c3=O)=Cc3ccccc3S2(=O)=O)cc1`, the Activity is recorded as 34% in the series on BV-2 [4], “Non-Toxic” with BV-2 [1] and 41% in the series on BV-2 [3]. In the series on BV-2 [2], the inhibition entry is “Active”.
Take `COc1ccc2c(=O)c(C#Cc3ccccc3S(=O)(=O)Nc3ccccc3)coc2c1`: the inhibition entry in the series with BV-2 [2] is “Active”. In the series with BV-2 [1], the Activity entry was “Toxic”.
On to `COc1ccc2c(=O)c(-c3ccc(N4C(c5ccccc5)=Cc5ccccc5S4(=O)=O)cc3)coc2c1`, for which, in the series on BV-2 [2], the inhibition entry was “Active”. Also, in the series with BV-2 [1], the Activity result is given as “Toxic”.
The matching figures for `COc1ccc2c(=O)c(-c3ccc([N+](=O)[O-])cc3)coc2c1`: “inactive” and “Non-Toxic”.
Consider `COc1ccc2c(=O)c(C#C[Si](C)(C)C)coc2c1`, for which the inhibition entry with BV-2 [2] is “Active”. Further, the Activity entry in the series on BV-2 [1] is given as “Non-Toxic”; in the series on BV-2 [3], 21%.
`C#Cc1coc2cc(OC)ccc2c1=O`: the viability at 24 h, 20 µM in series [5] worked out at 49%.
